Test results reported in the NIST ThermoML archive (doi:10.1016/j.fluid.2012.12.028).

Conditions: Liquid, Ebulliometric method (Recirculating still)

CON=C(C)C [propan-2-one O-methyl oxime]
Conditions | vapor or sublimation pressure [kPa]
307.8 K | 21.3
312.4 K | 26.3
316.6 K | 32.3
319.6 K | 36.3
322.9 K | 42.3
327.6 K | 51.3
330 K | 56.3
332.2 K | 61.3
334.2 K | 66.3
336.1 K | 71.3
337.7 K | 76.3
339.6 K | 81.3
341 K | 86.3
342.6 K | 91.3
344.1 K | 96.3
